Patent publication US20100137313A1 (ASTRAZENECA AB, priority 2008, published 2010)

target: S. pneumoniae Topoisomerase IV ATPase (ParE) (Streptococcus pneumoniae serotype 4, UniProt Q59961); assay: S. pneumoniae Topoisomerase IV ATPase inhibition; assay type: biochemical; details: values marked * are an average of two or more data points, read-out: % Inh (13 μM) of S. pneumoniae Topoisomerase IV ATPase
Outline: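 Malachite green/ammonium molybdate phosphate detection, A650. 1.25 nM ParE, 160 μM ATP, sheared salmon sperm DNA 5 μg/ml, 20 mM Tris pH 8.0, 8.0 mM MgCl2. Controls: 2% DMSO = 0%, 20 μM EDTA = 100% inhibition; IC50 over 10 concentrations.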

S. pneumoniae Topoisomerase IV ATPase (ParE), sequence (Q59961 whole entry): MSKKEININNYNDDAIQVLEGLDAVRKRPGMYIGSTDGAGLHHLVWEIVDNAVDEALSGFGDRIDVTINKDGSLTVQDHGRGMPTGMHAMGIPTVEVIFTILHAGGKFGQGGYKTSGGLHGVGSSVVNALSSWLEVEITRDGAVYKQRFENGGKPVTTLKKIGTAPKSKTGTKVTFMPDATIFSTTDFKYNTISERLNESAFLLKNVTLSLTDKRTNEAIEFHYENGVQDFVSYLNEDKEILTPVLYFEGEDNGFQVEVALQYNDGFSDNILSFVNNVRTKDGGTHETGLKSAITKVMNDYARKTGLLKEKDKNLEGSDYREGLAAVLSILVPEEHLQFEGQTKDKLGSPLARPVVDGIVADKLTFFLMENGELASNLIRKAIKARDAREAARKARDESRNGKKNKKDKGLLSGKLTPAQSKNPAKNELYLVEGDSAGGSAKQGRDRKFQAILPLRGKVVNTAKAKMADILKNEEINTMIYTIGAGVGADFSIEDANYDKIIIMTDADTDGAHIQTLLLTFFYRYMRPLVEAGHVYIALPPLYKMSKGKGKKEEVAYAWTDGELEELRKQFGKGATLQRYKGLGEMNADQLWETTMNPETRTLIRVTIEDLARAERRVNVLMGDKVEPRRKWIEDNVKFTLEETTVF

Row | SMILES | inhibition at 13 µM
1 | CS(=O)(=O)c1cccc(Nc2ncc(-c3cccc(/C=C/C(=O)O)c3)c(-n3ccc(C(F)(F)F)n3)n2)c1 [Example 623, (2E)-3-[3-(2-{[3-(methylsulfonyl)phenyl]amino}-4-[3-(trifluoromethyl)-1H-pyrazol-1-yl]pyrimidin-5-yl)phenyl]prop-2-enoic acid] | 100%
2 | CS(=O)(=O)c1cc(Nc2ncc(-c3cccc(/C=C/C(=O)O)c3)c(-n3ccc(C(F)(F)F)n3)n2)ccc1F [Example 1115, (E)-3-(3-(2-(4-fluoro-3-(methylsulfonyl)phenylamino)-4-(3-(trifluoromethyl)-1H-pyrazol-1-yl)pyrimidin-5-yl)phenyl)acrylic acid] | 93%
3 | CCOC(=O)c1cn(CCOC)c2ccc(-c3cnc(Nc4ccc(F)c(Cl)c4)nc3NCCCOC)cc2c1=O [Example 177, ethyl 6-(2-(3-chloro-4-fluorophenylamino)-4-(3-methoxypropylamino)-pyrimidin-5-yl)-1-(2-methoxyethyl)-4-oxo-1,4-dihydroquinoline-3-carboxylate] | 68.9%
4 | CC(=O)N1CCN(c2nc(Nc3ccc(F)c(Cl)c3)ncc2-c2cccc(/C=C/C(=O)O)c2)CC1 [Example 288, (E)-3-(3-(4-(4-acetylpiperazin-1-yl)-2-(3-chloro-4-fluorophenylamino)-pyrimidin-5-yl)phenyl)acrylic acid] | 82.9%
5 | COc1cc(F)cc(Nc2ncc(-c3cc(C(=O)O)c(=O)n(C)c3)c(-n3ccc(C(F)(F)F)n3)n2)c1 [Example 920, 5-(2-(3-fluoro-5-methoxyphenylamino)-4-(3-(trifluoromethyl)-1H-pyrazol-1-yl)pyrimidin-5-yl)-1-methyl-2-oxo-1,2-dihydropyridine-3-carboxylic acid] | 100%
6 | COc1cc(Nc2ncc(-c3cccc(/C=C/C(=O)O)c3)c(-n3nc(C(F)(F)F)cc3C)n2)cc(OC)c1 [Example 616, (2E)-3-(3-{2-[(3,5-dimethoxyphenyl)amino]-4-[5-methyl-3-(trifluoromethyl)-1H-pyrazol-1-yl]pyrimidin-5-yl}phenyl)prop-2-enoic acid] | 99%
7 | O=C(O)/C=C/c1cccc(-c2cnc(Nc3ccc(F)c(Cl)c3)nc2-n2cc(-c3ccncc3)cn2)c1 [Example 312, (2E)-3-(3-{2-[(3-chloro-4-fluorophenyl)amino]-4-[4-(pyridin-4-yl)-1H-pyrazol-1-yl]pyrimidin-5-yl}phenyl)prop-2-enoic acid] | 101%
8 | COc1cc(Nc2ncc(-c3cncc(C(=O)O)c3)c(-n3nc(C(F)(F)F)cc3C)n2)cc(OC)c1 [Example 636, 5-{2-[(3,5-dimethoxyphenyl)amino]-4-[5-methyl-3-(trifluoromethyl)-1H-pyrazol-1-yl]pyrimidin-5-yl}pyridin-3-carboxylic acid] | 100%
9 | O=C(O)c1cn(CCN2CCOCC2)c2ccc(-c3cnc(Nc4ccc(F)c(Cl)c4)nc3-n3ccc(C(F)(F)F)n3)cc2c1=O [Example 1069, 6-(2-(3-Chloro-4-fluorophenylamino)-4-(3-(trifluoromethyl)-1H-pyrazol-1-yl)pyrimidin-5-yl)-1-(2-morpholinoethyl)-4-oxo-1,4-dihydroquinoline-3-carboxylic acid] | 100%
10 | CCOC(=O)c1cncc(-c2cnc(Nc3ccc(F)c(Cl)c3)nc2NCCC(N)=O)c1 [Example 99, 5-[4-(2-Carbamoyl-ethylamino)-2-(3-chloro-4-fluoro-phenylamino)-pyrimidin-5-yl]-nicotinic acid ethyl ester] | 82%
11 | COc1ccc(-c2cnc(Nc3ccc(F)c(Cl)c3)nc2NCCCN(C)C)cc1C(F)(F)F [Example 7, N^2-(3-chloro-4-fluorophenyl)-N^4-(3-(dimethylamino)propyl)-5-(4-methoxy-3(trifluoromethyl)phenyl)pyrimidine-2,4-diamine] | 98.7%
12 | COc1cc(Cl)cc(Nc2ncc(-c3cncc(C(=O)O)c3)c(-n3ccc(C(F)(F)F)n3)n2)c1 [Example 774, 5-{2-[(3-chloro-5-methoxyphenyl)-amino]-4-[3-(trifluoromethyl)-1H-pyrazol-1-yl]pyrimidin-5-yl}pyridine-3-carboxylic acid] | 100%
13 | CCOC(=O)c1cncc(-c2cnc(Nc3ccc(F)c(Cl)c3)nc2NCCCN2CCS(=O)(=O)CC2)c1 [Example 105, 5-{2-(3-Chloro-4-fluoro-phenylamino)-4-[3-(1,1-dioxo-1λ^6-thiomorpholin-4-yl)-propylamino]-pyrimidin-5-yl}-nicotinic acid ethyl ester] | 79.2%
14 | CC(C)(C)OC(=O)NCCNc1nc(Nc2ccc(F)c(Cl)c2)ncc1-c1cncnc1 [Example 41, tert-butyl N-[2-[[2-[(3-chloro-4-fluorophenyl)amino]-5-pyrimidin-5-ylpyrimidin-4-yl]amino]ethyl] carbamate] | 72.7%
15 | CONC(=O)/C=C/c1cccc(-c2cnc(Nc3cc(OC)cc(C(F)(F)F)c3)nc2NCCc2ccncc2)c1 [Example 374, (E)-N-methoxy-3-(3-(2-(3-methoxy-5-(trifluoromethyl)phenylamino)-4-(2-(pyridin-4-yl)ethylamino)pyrimidin-5-yl)phenyl)acrylamide] | 81.2%
16 | Cc1cc(C)cc(Nc2ncc(-c3cncc(C(=O)O)c3)c(-n3nc(C(F)(F)F)cc3C)n2)c1 [Example 638, 5-{2-[(3,5-dimethylphenyl)amino]-4-[5-methyl-3-(trifluoromethyl)-1H-pyrazol-1-yl]pyrimidin-5-yl}pyridine-3-carboxylic acid] | 100%
17 | COc1ncc(-c2cnc(Nc3cccc(C)c3)nc2-n2ccc(C(F)(F)F)n2)cc1C(=O)O [Example 726, 2-methoxy-5-{2-[(3-methylphenyl)amino]-4-[3-(trifluoromethyl)-1H-pyrazol-1-yl]pyrimidin-5-yl}pyridine-3-carboxylic acid] | 100%
18 | CN(C)CCCNc1nc(Nc2ccc(F)c(Cl)c2)ncc1-c1ccc(C(=O)N(C)C)s1 [Example 366, 5-(2-(3-chloro-4-fluorophenylamino)-4-(3-(dimethylamino)propylamino)pyrimidin-5-yl)-N,N-dimethylthiophene-2-carboxamide] | 80.5%
19 | COCCOc1cccc(Nc2ncc(-c3cccc(/C=C/C(=O)O)c3)c(N3CCOCC3)n2)c1 [Example 457] | 28%
20 | COCCCNc1nc(Nc2ccc(F)c(Cl)c2)ncc1-c1ccc2sc(C(=O)O)cc2c1 [Example 307, 5-(2-(3-choloro-4-fluorophenylamino)-4-(3-methoxypropylamino)-pyrimidin-5-yl)benzo[b]thiophene-2-carboxylic acid] | 80.6%
21 | Cc1ncsc1CCNc1nc(Nc2ccc(F)c(Cl)c2)ncc1-c1cncc(C(=O)O)c1 [Example 262, 5-(2-[(3-chloro-4-fluorophenyl)amino]-4-{[2-(4-methyl-1,3-thiazol-5-yl)ethyl]amino}pyrimidin-5-yl)pyridine-3-carboxylic acid] | 80.5%
22 | COc1ncc(-c2cnc(Nc3cc(C)cc(C)c3)nc2-n2nc(C(F)(F)F)cc2C)cc1C(=O)NS(C)(=O)=O [Example 899, 5-(2-(3,5-dimethylphenylamino)-4-(5-methyl-3-(trifluoromethyl)-1H-pyrazol-1-yl)pyrimidin-5-yl)-2-methoxy-N-(methylsulfonyl)nicotinamide] | 97%
23 | O=C(O)/C=C/c1cccc(-c2cnc(Nc3ccc(F)c([N+](=O)[O-])c3)nc2N2CCOCC2)c1 [Example 448] | 82%
24 | COc1ncc(-c2cnc(Nc3ccc(F)c(Cl)c3)nc2-n2ccc(C(F)(F)F)n2)cc1C(=O)O [Example 1066, 5-(2-(3-chloro-4-fluorophenylamino)-4-(3-(trifluoromethyl)-1H-pyrazol-1-yl)pyrimidin-5-yl)-2-methoxynicotinic acid] | 100%
25 | COc1cc(Nc2ncc(-c3cnc(SC)c(C(=O)NS(C)(=O)=O)c3)c(-n3ccc(C(F)(F)F)n3)n2)cc(OC)c1 [Example 852, 5-{2-[(3,5-dimethoxyphenyl)amino]-4-[3-(trifluoromethyl)-1H-pyrazol-1-yl]pyrimidin-5-yl}-2-(methylsulfanyl)-N-(methylsulfonyl)pyridine-3-carboxamide] | 100%
26 | CN(C)CCCNc1nc(Nc2cc(C(F)(F)F)cc(C(F)(F)F)c2)ncc1-c1ccc(C(=O)O)s1 [Example 341, 5-(2-(3,5-bis(trifluoromethyl)phenylamino)-4-(3-(dimethylamino)propylamino)pyrimidin-5-yl) thiophene-2-carboxylic acid] | 87.2%
27 | CC(C)OCCNc1nc(Nc2ccc(F)c(Cl)c2)ncc1-c1cncc(C(=O)O)c1 [Example 236, 5-[2-[(3-chloro-4-fluorophenyl)amino]-4-(2-propan-2-yloxyethyolamino)pyrimidin-5-yl]pyridine-3-carboxylic acid] | 73.6%
28 | O=C(O)C1CCN(c2cccc(-c3cnc(Nc4ccc(F)c(Cl)c4)nc3-n3ccc(C(F)(F)F)n3)c2)C1 (stereo not drawn) [Example 604, 1-(3-{2-[(3-chloro-4-fluorophenyl)amino]-4-[3-(trifluoromethyl)-1H-pyrazol-1-yl]pyrimidin-5-yl}phenyl)pyrrolidine-3-carboxylic acid] | 100%
29 | CCCNc1nc(Nc2ccc(F)c(Cl)c2)ncc1-c1cncc(C(=O)OCC)c1 [Example 90, 5-[2-(3-Chloro-4-fluoro-phenylamino)-4-propylamino-pyrimidin-5-yl]-nicotinic acid ethyl ester] | 24.6%
30 | COc1cc(C)cc(Nc2ncc(-c3cc(C(=O)NS(C)(=O)=O)c(=O)n(C)c3)c(-n3nc(C(F)(F)F)cc3C)n2)c1 [Example 1174, 5-{2-[(3-methoxy-5-methylphenyl)amino]-4-[5-methyl-3-(trifluoromethyl)-1H-pyrazol-1-yl]pyrimidin-5-yl}-1-methyl-N-(methylsulfonyl)-2-oxo-1,2-dihydropyridine-3-carboxamide] | 100%
